A short description of series [1]: solid-state stability of the freeze-dried amorphous form upon standing. Type of series: physicochemical. To be noted: amorphous form prepared by freeze-drying. The source says: WO 2008/040816 discloses an amorphous form of asenapine maleate, prepared via spray-drying or freeze-drying processes.
For series [2] the following is noted: micronization step starting from the monoclinic form; cited from earlier work.
The nature of series [3]: stability of the polymorphic forms at room temperature. Type of series: physicochemical. The settings on record: solid form.

Molecules are shown by their SMILES. Structures can show the parent of a compound that is named as a salt.

In the case of `CN1C[C@H]2c3ccccc3Oc3ccc(Cl)cc3[C@@H]2C1` [amorphous form, asenapine maleate], in series [1], the “stability of solid form upon standing” value is “not stable, and spontaneously converts into Form H upon standing”.

With `CN1C[C@H]2c3ccccc3Oc3ccc(Cl)cc3[C@@H]2C1` [Form H, asenapine maleate], in series [2], the “polymorphic form obtained after micronization” value was “an unpredictable mixture of Form H and Form L is obtained”.

For the compound `CN1C[C@H]2c3ccccc3Oc3ccc(Cl)cc3[C@@H]2C1` [Form G, asenapine maleate], the “stability at room temperature” value in series [3] is given as “stable at room temperature”.

Source of the values: patent US8933114B2, “Polymorphic forms of asenapine maleate and processes for their preparation” (Chemo Iberica, S.A., priority 2010, dated 2015).
